Oc1cc(Cl)ccc1Oc1ccc(Cl)cc1Cl
solubility (mole fraction)
Conditions | in chloroform | in ethanol | in isopropyl myristate | in n-heptane | in n-octanol
293.15 K | 0.33 | 0.332 | 0.0422 | 0.0156 | 0.0089
298.15 K | 0.412 | 0.449 | 0.0475 | 0.0286 | 0.025
303.15 K | 0.501 | 0.57 | 0.0527 | 0.0421 | 0.0785
308.15 K | 0.561 | 0.654 | 0.0563 | 0.0605 | 0.157
313.15 K | 0.633 | 0.751 | 0.0594 | 0.0806 | 0.285

Reference: BigSolDB 2.1
